How the values were obtained:
[1] = test system: porcine ciliary epithelium; assay: Fluid flow (FF) across the ciliary epithelium in modified Ussing-type chamber; conditions: aqueous addition of 3.5 mM heptanol, 25° C., n=6 (FIG. 2)
Source text: The reasons being that firstly, no information was available at the time to teach the preparation an intact ciliary epithelium, which is required for fluid flow measurement, and secondly, even when an intact ciliary epithelium was used, there was no device available that would enable measurement of fluid flow across the ciliary epithelium. In view of this, the inventors invested a great deal of effort into developing a modified Ussing-type chamber, which enables fluid flow (FF) and potential difference across the ciliary epithelium to be measured simultaneously. Fundamentally, the Ussing-type chamber includes two hemi-chambers, between which an excised preparation of ciliary epithelium is mounted. […] The graduated capillary can be used to monitor the change in fluid volume inside the second hemi-chamber throughout the experiment, which is then calculated as FF rate. […] At a later stage, the inventors further incorporated electrodes into the FF chamber to enable both electrical parameters and FF to be monitored simultaneously. […] (A) The calculated FF rate in the blood-to-aqueous direction during the course of the experiment. (B) PD recorded simultaneously with the measurement of the capillary levels.

[2] = test system: ciliary epithelium; assay: In vitro short-circuit current across the ciliary epithelium (rabbit)
[3] = Topical administration of heptanol to rabbit eyes, intraocular pressure (IOP) in vivo; conditions: topical administration of 1.0% heptanol to the eyes (FIG. 1)
Source text: FIG. 1 illustrates the effects of topical administration of 1.0% heptanol to rabbit eyes.

[4] = test system: ciliary epithelium; assay: In vitro short-circuit current across the ciliary epithelium (pig)
[5] = test system: ciliary epithelium; assay: In vitro short-circuit current across the ciliary epithelium (ox)

## CCCCCCCO [heptanol]
[1]
  inhibition of fluid flow across the ciliary epithelium: up to 78%
[2]
  reduction of short-circuit current across the ciliary epithelium: ~80%
[3]
  effectiveness in lowering intraocular pressure (IOP): inconclusive results
[4]
  reduction of short-circuit current across the ciliary epithelium: ~80%
[5]
  reduction of short-circuit current across the ciliary epithelium: ~80%
